Data set [1] concerns MCF-7/6 breast cancer cells. In words: AFM spheroid stiffness, MCF-7/6 breast cancer cells. Format: cell-based, human. Conditions: 48 h. The protocol: Selectivity for CAFs with respect to normal fibroblasts and other cell types was assessed by performing an identical experiment with normal fibroblasts and other cell types, where compounds were considered selective for CAFs if they only modulate CAF stiffness.
(§1) U-shaped, 384-well ULA plates (cat. no. MS-9384UZ, S-bio) were seeded with a suspension of cell-specific culture media with cells. Cells were allowed to form spheroids for an appropriate time under treatment conditions before use in experiments. Cell culture dishes (cat. no. 734-2814, VWR) were filled with collagen gel and placed at 37° C. for an appropriate time to allow solidification. For each condition, spheroids were pooled in one cell culture dish. The medium was removed (stored at 37° C.) to promote attachment of the bottom of each spheroid to the collagen gel. The cell culture dishes were incubated at 37° C. After the incubation period, the stored medium was carefully (prevent detachment of spheroids) added to the dishes.
(§2) Mechanical measurements were performed using an atomic force microscope. To indent the spheroids an in-house made colloidal probe was used. Force curves were collected using an appropriate setpoint and probe speed (depending on the stiffness of the spheroids). On each spheroid multiple force curves were collected. Collected curves were then processed using the JPK DP software. Young's modulus was extracted from the force curves. All experiments were performed in biological triplicate.
(§3) To generate 3D cultures mimicking the complexity and pathophysiology of in vivo tumors, spheroids were used (cfr. point 4). Spheroids are considered to better simulate cellular heterogeneity, nutrient and oxygen gradients, cell-cell interactions, cell-matrix interactions, gene expression profiles, stromal interactions, therapeutic responses, multicellular resistance, drug penetration and anti-apoptotic signaling.

A short description of data set [2]: 4T1-based intraductal model: tolerability. Format: in vivo. Conditions: oral in Medigel, 100 mg/kg three times per day; weekly evaluation across 6 w study period. The protocol:
Compounds were dissolved in DMSO. The compound solution was subsequently aspired using a 1 mL syringe and an 18 G (pink) needle, including additional air to help eject all the solution and avoid retention of compound in the dead volume. The solution was injected into a Medigel in five parts at five different sites and a volume of gel was aspired and reinjected into the cup at the last site to rinse the dead volume of the syringe. The medication was shaken vigorously afterwards and visually examined for even dispersion of compound. Mice received freshly prepared cups with medication every 48 h and gels were placed in gel cup holders to avoid contact with bedding material and absorbent shavings in the mouse cage. The amount of Medigel given to the mice was weekly determined and depended on the mean mouse body weight and consumption. The dosing level was kept constant at 100 mg/kg three times per day.
Body weight and body temperature were measured every day during the first week p.i., and once a week during the following 5 weeks (i.e. up to 6 w p.i.) using a digital weighing scale and a rectal temperature probe, respectively. As a measurement of primary tumor growth, primary tumor volumes were weekly monitored using a digital caliper and 4T1-luc-derived bioluminescence in primary tumors was monitored at 1, 3 and 6 w p.i. using the IVIS lumina III system (PerkinElmer, Zaventem, Belgium). To perform in vivo imaging, mice were injected with 200 μl D-luciferin suspended in PBS (2 mg/100 μl; Gold Biotechnology, St. Louis, MO) and images were acquired 10 min later under inhalation anesthesia. To perform ex vivo imaging, mice were sedated with a mixture of 100 mg/kg ketamine (Ketamidor, Ecuphar nv/sa, Oostkamp, Belgium) and 10 mg/kg xylazine (Xylazini Hydrochloridum, Val d'HonyVerdifarm, Beringen, Belgium) and subsequently sacrificed through cervical dislocation. Images of bioluminescent signals in isolated primary tumors, spleens and metastases-bearing organs (including axillary lymph nodes, lungs and liver) were quickly acquired using the IVIS system. Primary tumors and spleens were also weighed using a digital weighing scale. Analysis of the in vivo and ex vivo bioluminescent signals was performed using the living image software 4.7.2.

The subject of data set [3] is 13B2 hTERT, CT5.3 hTERT, HCA2 hTERT, MCF-7/6 and 4T1-Luc cells. As to the kind of experiment: 2D CellTiter-Glo Cell Viability Assay. The format is cell-based. The note with it: 48 h of treatment. As to the method: The half maximal inhibitory concentration (IC50) of A1 was evaluated using a CellTiter-Glo® 2.0 Cell Viability Assay (cat. no. G9243, Promega) and a CellTiter-Glo® 3D Cell Viability Assay (cat. no. G9681, Promega). 13B2 hTERT cells (2D: 2×10^5, 3D: 8×10^4) were plated in each well of a Nunc™ MicroWell™ 96-Well, Nunclon Delta-Treated, Flat-Bottom Microplate (cat. no. 167008, Thermo Fisher Scientific) for 2D experiments or 96-well ULA plate (cat. no. MS-9096UZ, S-bio) in a volume of 90 μL/well. A1 was serially diluted in the appropriate medium to 10× the final concentrations. For each treatment condition, 10 μL was added to 3 replicate wells (final concentrations ranging from 1-100 μM) and plates were incubated for 48 h.
The CellTiter-Glo Cell Viability Assay was performed according to manufacturer's instructions. Briefly, the plates and the CellTiter-Glo® Reagent were equilibrated to room temperature (RT). The CellTiter-Glo® Reagent was added to each well in a 1:1 (v/v) ratio. For 2D experiments, cell lysis was induced by placing the plates on an orbital shaker for 2 min, followed by stabilization of the luminescent signal for 10 min. […] Afterwards, the luminescence was measured using a Synergy™ HTX Multi-Mode Microplate Reader (BioTek). The IC50 value was determined using the Graphpad Prism software. […]

The next data set deals with 13B2 hTERT breast CAFs. In words: AFM spheroid stiffness, 13B2 hTERT breast CAFs. Conditions: for Young's modulus / spheroid stiffness: 1 μM, 48 h during spheroid formation. The format is cell-based, human.
Source text: It is well established that an increased tumor and ECM stiffness is associated with a negative prognosis as it promotes tumor growth, progression, therapy resistance, immunosuppression and metastasis. Stiffness is chiefly regulated by the action of the CAFs in the TME. Stiffness modulation is, therefore, a fitting read-out of activity in a screen for CAF modulators. To assess stiffness modulation, the stiffness of spheroids of CAF cells treated with test compounds was interrogated using atomic force microscopy (AFM) indentation and compared with untreated cells. AFM measurement of the stiffness (elasticity) of cells and spheroids is a technique well-known to those skilled in the art. AFM measures the force required to create a given deflection, this read-out is also known as the Young's modulus. AFM is widely used in biology and cancer research: altered physicochemical properties of live cells serve as a read-out of altered complex physiological processes.
as §1, §2, §3

Results on 2 molecules are retold here after patent publication US20260191817A1, “FIBROBLAST MODULATORS IN STROMA-RICH TUMORS” (UNIVERSITEIT GENT, priority 2022, published 2026).

“Also recorded” adds a separate entry of the source.

With `COc1cc(C(=O)/C=C/c2ccc(F)cc2)cc(OC)c1OC` [Compound A1, 3-(4-Fluorophenyl)-1-(3,4,5-trimethoxyphenyl)prop2-en-1-one], the spheroid stiffness result in data set [1] (1 μM) is given as “no effect”. Also, the spheroid stiffness result in data set [1] (0.03-3 μM) is on record as “not result in a change”. Also, in data set [2], the Body temperature result is given as “no significant variation” and the Body weight result is recorded as “no significant variation”. In addition, in data set [3], the “IC50 value, metabolic activity of 2D cultures” value is listed as “high micromolar”. For the same molecule, the “Young's modulus / spheroid stiffness, concentration range” value in the data set with 13B2 hTERT breast CAFs (30 nM-3 μM, 48 h) is listed as “dose-response behavior”. In the data set on 13B2 hTERT breast CAFs, the “Young's modulus / spheroid stiffness” value is “significant decrease; also recorded: active”.
In the case of `COc1cc2oc(-c3ccc(F)cc3)cc(=O)c2c(OC)c1OC` [Compound B1, 2-(4-Fluorophenyl)-5,6,7-trimethoxy-4H-chromen-4-one], the spheroid stiffness entry in data set [1] (1 μM) is reported as “no effect”. Moreover, in data set [2], the Body temperature result is “no significant variation” and the Body weight entry is recorded as “no significant variation”. Also, in data set [3], the “IC50 value, metabolic activity of 2D cultures” value is “high micromolar”. Further, in the data set on 13B2 hTERT breast CAFs, the “Young's modulus / spheroid stiffness” value is given as “significant decrease; also recorded: active”.
